According to US6664241B2, “Water-soluble amide derivatives of polyene macrolides and preparation and uses thereof” (Micrologix Biotech Inc., priority 2000, dated 2003):
≈ marks a conversion by molar mass, not a printed value. Read-outs that look alike come from different tables or passages of the source.

Legend:
[1] = system: C. albicans; experiment: Minimum Inhibitory Concentrations (MICs) against C. albicans, NCCLS M27-A broth dilution; assay type: cell-based
Experimental: For each compound synthesized, Minimum Inhibitory Concentrations (MICs) against C. albicans were determined as described in Reference Method for Broth Dilution Antifungal Susceptibility Testing of Yeasts, Approved Standard, NCCLS document M27-A (ISBN 1-56238-328-0), NCCLS, 940 West Valley Road, Suite 1400, Wayne, Pa. 19087, 1997.

[2] = Maximum non-lethal dose (NLD), single intravenous dose in mice; assay type: in vivo, Swiss-Webster male mice; details: test compounds as aspartate salts in 5% mannitol, AmB as FUNGIZONE
Experimental: (§1) A variety of the compounds synthesized as described in Section 5, supra, were tested in various in vivo assays, as described below. The results of the various assays are provided in TABLE 3, presented at the end of this section. In all of the in vivo assays described, the test compounds, in the form of the aspartate salts, were formulated in an aqueous vehicle (5% mannitol in sterile water; OSMITROL, Baxter Healthcare, Deerfield, Ill.), followed by appropriate dilutions. The formulations were prepared fresh before dosing.
(§2) AmB and AME were also tested for comparison. For AmB, the commercially available FUNGIZONE (Bristol-Meyers Squibb Co.) was used. Reported values are based upon the weight of the AmB active ingredient, not on the basis of the weight of the FUNGIZONE powder. AME was formulated in OSMITROL as described for the test compounds.
Maximum non-lethal dose (NLD) data were obtained for selected compounds. A single intravenous dose was administered to each of four mice (Swiss-Webster male mice; Simonsen Laboratories, Gilroy, Calif.) in several groups. The doses selected were based upon the NLDs of compounds of similar structures. After review of findings, higher or lower doses were administered and a NLD was determined. The results are tabulated in TABLE 3, below (NLD Acute Mice). The values for AmB and AME are provided for comparison

[3] = system: C. albicans; experiment: 5 day kidney bioburden evaluation in immunocompetent mice challenged with C. albicans; assay type: in vivo, Swiss-Webster mice; details: intraperitoneally once daily for 5 days, immunocompetent mice, C. albicans, 50% of animals with 2 log10 reduction in kidney CFU
Experimental: as §1, §2
Various polyene macrolide amide derivatives of the invention were evaluated for their protective effect when administered intraperitoneally once daily for 5 days to immunocompetent mice challenged with live C. albicans.
C. albicans was grown on Sabouraud dextrose agar (SDA) plates for 48 hr. Colonies were harvested and washed twice by centrifugation in phosphate-buffered saline (PBS). The washed pellets were resuspended in PBS and diluted to achieve the desired number of fungi per milliliter. A portion of the inoculum was plated on SDA plates to determine the colony-forming units (CFU) per milliliter.
(§3) Swiss-Webster mice (Simonsen Laboratories, Gilroy, Calif.) were administered by intravenous injection a single inoculum (0.2 mL) containing as estimated 2.0×10^5 CFU of C. albicans. The day of inoculation was designated as study day 0. Beginning three days after injection, mice were treated intraperitoneally with vehicle alone or formulated test compound once daily for 5 consecutive days.
(§4) The mice were observed daily from study day 0 through study day 10 (3 days after the last dose). Mice found dead or euthanized in extremis were removed from the study without further processing. Surviving mice were euthanized by inhalation of CO2 on study day 10 and both kidneys from each mouse were removed. Each pair of removed kidneys was homogenized in 3 mL of ice-cold PBS containing 10% glycerol. A portion of each homogenate was used to determine log10 CFU per kidney using SDA plates (48 hours of incubation at 30° C.). Kidney log10 CFU data were analyzed using a t-test. The criterion for a statistically significant response was set at p<0.01.
(§5) For comparison, the results for AmB and AME are also provided. Efficacy was defined for individual animals as a greater than 2 log10 reduction in kidney CFU relative to the mean vehicle control value.

[4] = system: C. albicans; experiment: 7 day kidney bioburden evaluation in neutropenic mice challenged with C. albicans; assay type: in vivo, Swiss-Webster mice; details: intraperitoneally once daily for 7 days, 50% of animals with 2 log10 reduction in kidney CFU
Experimental: as §1, §2
Various polyene macrolide amide derivatives of the invention were evaluated for their protective effect when administered intraperitoneally once daily for 7 days to neutropenic mice challenged with live C. albicans.
as §3, with “made neutropenic by intravenous administration of 5-fluorouracil (150 mg/kg) on study day −1. On study day 0, all mice received” for “administered”, “5.0×10^4” for “2.0×10^5”, “the day” for “three days”, “infection (on study day 1),” for “injection,”, “compound,” for “compound”, “7” for “5”
as §4, with “day 1” for “day 0”, “day 8 (1 day” for “day 10 (3 days”, “day 8” for “day 10”
as §5

[5] = Two week range-finding toxicity study in mice; assay type: in vivo, CD-1 mice; details: for NOAEL at 2 week: both sexes, CD-1, mouse, in vivo, iv
Experimental: as §1, §2
Various polyene macrolide amide derivatives of the invention were evaluated to characterize their potential toxicity when administered subchronically by intravenous injection.
CD-1® mice (Charles River Laboratories, Portage, Mich.) were acclimated to laboratory conditions for at least 5 days before the start of dosing. During the acclimation period, the general condition of the mice was evaluated, and those considered healthy were used. The mice were randomly assigned to treatment groups using a stratified body weight regimen. Each treatment group consisted of 3 male and 3 female mice. The mice were housed in a room with a controlled environment and provided rodent chow and water ad libitum.
On the first day of dosing, the mice were approximately 7 to 9 weeks old and weighed 22 to 30 g. Doses were administered by intravenous injection once daily on study days 1 to 5 and 8 to 12. Dosages were selected based upon data from efficacy and toxicology studies, and ranged from 1.25 to 30 mg/kg/day. Clinical observations were recorded 0.5 hr after dosing on days 1, 3, 5, 8, 10, 12 and 15, and on any day a change was observed. Body weights were recorded prior to dosing and on study days 8 and 12, and on study day 15 at the completion of the in-life phase of the study.
Animals that were found in a moribund/deteriorating clinical state were euthanized (animal designated killed in extremis) by inhalation of CO2. The day of death for any animal found dead or killed in extremis was recorded. Any animal that died prematurely was removed from the study without further processing.
One day after completion of dosing (study day 16), all surviving mice were euthanized by inhalation of CO2. Their kidneys were preserved for histopathologic examination. The maximum no-observed-adverse-effect level (NOAEL) was determined on the basis of clinical and histopathologic findings. The values for AmB and AME are provided for comparison.

[6] = Ascending single-dose nephrotoxicity study in rabbits; assay type: in vivo, Female New Zealand white rabbits; details: ascending single intravenous infusion doses, urine volume, BUN, creatinine
Experimental: as §1
AmB and AME were also tested for comparison. For AmB, the commercially available FUNGIZONE (Bristol-Meyers Squibb Co.) was used. […]
Various polyene macrolide amide derivatives of the invention were evaluated to determine the intravenous dose of administered compound that produces nephrotoxicity in rabbits. Nephrotoxicity was monitored by measuring urine volume and blood urine nitrogen (BUN) and creatinine. […]
Ascending single doses were administered by intravenous infusion into an ear vein at a rate of 0.6 mL/min. […] Body weights were recorded before each dose, as well as 2 days after the last dose. Blood samples were collected from the rabbits two days prior to the first dose (study day −2) and approximately 24 hr after each dose and analyzed for BUN and creatinine. […]

[7] = rats; cited from earlier work
[8] = dogs; cited from earlier work
[9] = human, in vivo; cited from earlier work

SMILES	MIC [1]	NLD acute mice [2]	ED50 mice 5 day [3]	ED50 mice 7 day [4]	NOAEL 2 week mice clinical ([5]; intravenous once daily on days 1 to 5 and 8 to 12, clinical findings)	NOAEL 2 week mice histological ([5]; intravenous once daily on days 1 to 5 and 8 to 12, histopathologic (kidney) findings)	NOAEL acute rabbit [6]	acute, nephro- and hepato-toxicity versus amphotericin B [7]	acute, nephro- and hepato-toxicity versus amphotericin B [8]	adverse effects in clinical trial [9]	MIC ([1]; Candida albicans, read-out: MIC)	ED50 ([3]; Candida albicans, ip, 120 h, read-out: ED50 mice 5 day)	ED50 ([4]; Candida albicans, ip, 168 h)	NOAEL at 2 week ([5]; NOAEL 2 week mice clinical)	NOAEL at 2 week ([5]; NOAEL 2 week mice histological)
COC(=O)[C@H]1[C@@H]2C[C@@H](O[C@@H]3O[C@H](C)[C@@H](O)[C@H](N)[C@@H]3O)/C=C/C=C/C=C/C=C/C=C/C=C/C=C/[C@H](C)[C@@H](O)[C@@H](C)[C@H](C)OC(=O)C[C@H](O)C[C@H](O)CC[C@@H](O)[C@H](O)C[C@H](O)C[C@](O)(C[C@@H]1O)O2 [AME, amphotericin B methyl ester, reference compound]	0.75 µg/mL (≈ 0.799 µM)	60 mg/kg	13.1 mg/kg	8.3 mg/kg	>32 mg/kg	>32 mg/kg	7.5 mg/kg	lower acute, nephro- and hepato-toxicity than amphotericin B	lower acute, nephro- and hepato-toxicity than amphotericin B	many patients developed progressive neurological dysfunction associated with white matter degeneration					
CC1[C@H](C)OC(=O)C[C@H](O)C[C@H](O)CC[C@@H](O)[C@H](O)C[C@H](O)C[C@]2(O)C[C@H](O)C(C(=O)NCCN3CCCCC3)C(C[C@@H](OC3O[C@H](C)[C@@H](O)[C@H](NC[C@@]4(O)OC[C@@H](O)[C@H](O)[C@@H]4O)[C@@H]3O)/C=C/C=C/C=C/C=C/C=C/C=C/C=C/[C@H](C)[C@H]1O)O2 (stereo partly shown) [Compound 114]		40 mg/kg									4 µg/mL (≈ 3.34 µM)	9 mg/kg	6.1 mg/kg	9 mg/kg	9 mg/kg
